“And” between values parts separate entries of the source, which are not always exact repeats. Equal entries are not always repeated. Where two headings read alike, the source gives them in different places. One block for each compound: values may come before it.
What was measured:
[1] = target: T1, CMV polymerase (Human cytomegalovirus, UniProt P08546); experiment: modified version of the HCMV polymerase assay (100% DMSO dilution, DTT, different enzyme lot); assay type: biochemical
T1 construct: made in house; host or cells: recombinant baculovirus-infected SF-9 cells
Description: (§1) The HCMV polymerase assay is performed using a scintillation proximity assay (SPA) as described in several references, such as N. D. Cook, et al., Pharmaceutical Manufacturing International, pages 49-53 (1992); K. Takeuchi, Laboratory Practice, September issue (1992); U.S. Pat. No. 4,568,649 (1986); which are incorporated by reference herein. Reactions are performed in 96-well plates. The assay is conducted in 100 μl volume with 5.4 mM HEPES (pH 7.5), 11.7 mM KCl, 4.5 mM MgCl2, 0.36 mg/ml BSA, and 90 nM ^3H-dTTP. Assays are run with and without CHAPS, (3-[(3-Cholamidopropyl)-dimethylammonio]-1-propane-sulfonate) at a final concentration of 2 mM. HCMV is diluted in enzyme dilution buffer containing 50% glycerol, 250 mM NaCl, 10 mM HEPES (pH 7.5), 100 pg/ml BSA, and 0.01% sodium azide. The HCMV polymerase, which is expressed in recombinant baculovirus-infected SF-9 cells and purified according to literature procedures, is added at 10% (or 10 μl) of the final reaction volume, i.e., 100 μl. Compounds are diluted in 50% DMSO and 10 μl are added to each well. Control wells contain an equivalent concentration of DMSO. Unless noted otherwise, reactions are initiated via the addition of 6 nM biotinylated poly(dA)-oligo(dT) template/primer to reaction mixtures containing the enzyme, substrate, and compounds of interest. Plates are incubated in a 25° C. of 37° C. H2O bath and terminated via the addition of 40 μl/reaction of 0.5 M EDTA (pH 8) per well. Reactions are terminated within the time-frame during which substrate incorporation is linear and varied depending upon the enzyme and conditions used, i.e., 30 min. for HCMV polymerase. Ten μl of streptavidin-SPA beads (20 mg/ml in PBS/10% glycerol) are added following termination of the reaction. Plates are incubated 10 min. at 37° C., then equilibrated to room temperature, and counted on a Packard Topcount. Linear regressions are performed and IC50's are calculated using computer software. Results of the testing of compounds of the present invention in this assay are shown in Tables 1, 2, 5, 9, 10, 11, 13 (except for the last compound which was tested under modified conditions) and 14 below.
A modified version of the above HCMV polymerase assay is performed as described above, but with the following changes: Compounds are diluted in 100% DMSO until final dilution into assay buffer. In the previous assay, compounds are diluted in 50% DMSO. 4.5 mM dithiotherotol (DTT) is added to the polymerase buffer.

[2] = target: T2, HCMV polymerase (Human cytomegalovirus, UniProt P08546); experiment: HCMV polymerase assay (scintillation proximity assay); assay type: biochemical
T2 construct: made in house; host or cells: recombinant baculovirus-infected SF-9 cells
Description: as §1

[3] = Polymerase CMV, Table 7, read-out: Antiviral Selective Polymerase IC50 Values - IC50
[4] = Table 9, read-out: CMV pol Assay- IC50
[5] = Table 11, read-out: CMV pol Assay IC50
[6] = Table 10, CMV pol Assay, read-out: IC50

T2 sequence (P08546 whole entry): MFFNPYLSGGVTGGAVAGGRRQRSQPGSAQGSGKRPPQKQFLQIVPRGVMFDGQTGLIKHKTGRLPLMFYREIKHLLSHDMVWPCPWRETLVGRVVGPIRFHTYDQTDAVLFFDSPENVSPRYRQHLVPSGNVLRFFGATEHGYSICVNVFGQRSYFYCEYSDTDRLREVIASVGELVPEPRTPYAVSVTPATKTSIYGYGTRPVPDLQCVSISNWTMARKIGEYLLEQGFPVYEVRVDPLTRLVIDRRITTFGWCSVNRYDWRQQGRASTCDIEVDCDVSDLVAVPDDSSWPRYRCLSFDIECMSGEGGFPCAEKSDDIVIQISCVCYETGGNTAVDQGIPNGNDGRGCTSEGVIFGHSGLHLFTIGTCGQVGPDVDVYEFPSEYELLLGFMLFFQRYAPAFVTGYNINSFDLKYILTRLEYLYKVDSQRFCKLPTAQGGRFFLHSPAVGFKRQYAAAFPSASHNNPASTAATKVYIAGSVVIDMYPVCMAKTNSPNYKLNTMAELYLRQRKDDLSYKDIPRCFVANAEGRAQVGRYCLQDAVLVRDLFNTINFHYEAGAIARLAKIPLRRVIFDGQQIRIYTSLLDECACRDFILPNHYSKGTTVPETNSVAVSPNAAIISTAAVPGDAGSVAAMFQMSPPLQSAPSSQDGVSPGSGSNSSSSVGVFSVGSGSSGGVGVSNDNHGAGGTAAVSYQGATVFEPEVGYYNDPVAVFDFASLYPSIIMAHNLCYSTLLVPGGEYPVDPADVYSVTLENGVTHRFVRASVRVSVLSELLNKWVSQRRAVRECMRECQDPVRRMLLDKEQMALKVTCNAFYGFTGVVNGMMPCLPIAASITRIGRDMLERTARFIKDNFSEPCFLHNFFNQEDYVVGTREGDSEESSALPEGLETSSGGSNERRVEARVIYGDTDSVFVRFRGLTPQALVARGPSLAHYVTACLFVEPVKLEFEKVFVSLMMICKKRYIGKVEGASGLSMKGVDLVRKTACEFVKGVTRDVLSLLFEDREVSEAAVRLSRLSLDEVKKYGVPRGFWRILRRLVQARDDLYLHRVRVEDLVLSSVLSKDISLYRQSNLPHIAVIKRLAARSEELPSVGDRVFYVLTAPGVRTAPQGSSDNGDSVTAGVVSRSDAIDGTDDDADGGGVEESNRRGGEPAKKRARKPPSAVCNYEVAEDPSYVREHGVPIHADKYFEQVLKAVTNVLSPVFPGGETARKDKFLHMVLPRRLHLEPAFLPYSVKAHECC
T1 sequence (P08546 whole entry): as above

Compound: Cc1ccc2c(Cl)cc(C(=O)NCCCc3ccccc3)c(O)c2n1 [Example 69, 5-chloro-8-hydroxy-2-methyl-N-(3-phenylpropyl)-7-quinolinecarboxamide]
- melting point: 109 to 111 °C

Compound: Cc1ccc2c(Cl)cc(C(=O)NCCSc3ccccc3)c(O)c2n1 [Example 70, 5-chloro-8-hydroxy-2-methyl-N-[(2-phenylthio)ethyl]-7-quinolinecarboxamide]
- melting point: 131 to 134 °C

Compound: O=S(=O)(NCc1ccccc1)c1cc(Br)c2cccnc2c1O [Example 24, 5-Bromo-8-hydroxy-N-(phenylmethyl)-7-quinolinesulfonamide]
- melting point: 191 to 192 °C

Compound: Cc1ccc2c(Cl)cc(C(=O)NCCSc3ccccc3)c(O)c2n1 [drawing 127]
- IC50 [1, 3]: 42.8 µM

Compound: O=C(NCCCc1ccccc1)c1ccc2ccc(/C=C/c3ccccc3)nc2c1O
- IC50 ([1]; Table 13, last compound, tested under modified conditions, read-out: IC50): 5.1 µM

Compound: CCCCCCCNC(=O)c1ccc2ccc(C(F)(F)F)nc2c1O [Example 56, N-Heptyl-8-hydroxy-2-(trifluoromethyl)-7-quinolinecarboxamide]
- melting point: 97 to 99 °C

Compound: CC(C)c1ccc(S(=O)(=O)NCCCCCNC(=O)c2ccc3cccnc3c2O)cc1 [Example 71]
- melting point: 106 to 108 °C

Compound: CSCC[C@H](Nc1nnc(NC(=O)c2ccc3cccnc3c2O)s1)C(=O)OC(C)(C)C.O (hydrate or solvate)
- melting point: 204 to 205 °C

Compound: COc1ccc(CCc2ccc3ccc(C(=O)NCC(O)c4ccccc4)c(O)c3n2)cc1 (stereo not drawn) [Example 73, 8-hydroxy-N-(2-hydroxy-2-phenylethyl)-2-[2-(4-methoxyphenyl)ethyl]-7-quinolinecarboxamide]
- melting point: 69 to 72 °C

Compound: Cc1ccc2c(Cl)cc(S(=O)(=O)NCCc3c[nH]c4ccccc34)c(O)c2n1 [Example 64]
- % Inhibition ([1]; Concentration 3.13 μM, Table 6): 16%
- % Inhibition ([1]; Concentration 6.25 μM, Table 6): 25%
- % Inhibition ([1]; Concentration 12.5 μM, Table 6): 25%
- % Inhibition ([1]; Concentration 25 μM, Table 6): 46%
- % Inhibition ([1]; Concentration 50 μM, Table 6): 75%
- % Inhibition ([1]; Concentration 100 μM, Table 6): 58%
- % Inhibition ([1]; Concentration 200 μM, Table 6): 84%
- IC50 ([1]; Table 6, read-out: IC50): 29.8 µM

Compound: Cc1ccc2c(Cl)cc(C(=O)NCCCc3ccccc3)c(O)c2n1 [drawing 126]
- IC50 [1, 3]: 9.7 µM and 9.4 µM

Compound: CC(C)C[C@H](Nc1nnc(NC(=O)c2ccc3cccnc3c2O)s1)C(=O)OC(C)(C)C.O (hydrate or solvate)
- melting point: 214 to 215 °C

Compound: COc1ccc(CCc2ccc3ccc(C(=O)NCC(O)c4ccccc4)c(O)c3n2)cc1 (stereo not drawn) [drawing 129]
- IC50 [1, 3]: 13.3 µM

Compound: O=S(=O)(NCc1ccccc1)c1cc(F)c2cccnc2c1O [Example 67, 5-Flouro-8-hydroxy-N-(phenylmethyl)-7-quinolinesulfonamide]
- % Inhibition ([1]; Concentration 3.13 μM, Table 6): 13%
- % Inhibition ([1]; Concentration 6.25 μM, Table 6): 23%
- % Inhibition ([1]; Concentration 12.5 μM, Table 6): 25%
- % Inhibition ([1]; Concentration 25 μM, Table 6): 41%
- % Inhibition ([1]; Concentration 50 μM, Table 6): 76%
- % Inhibition ([1]; Concentration 100 μM, Table 6): 86%
- % Inhibition ([1]; Concentration 200 μM, Table 6): 94%
- IC50 ([1]; Table 6, read-out: IC50): 23.6 µM

Compound: Cc1ccc2c(Cl)cc(C(=O)NCc3ccc(Cl)cc3)c(O)c2n1 [Example 68, 5-Chloro-N-[(4-chlorophenyl)methyl]-8-hydroxy-2-methyl-7-quinolinecarboxamide]
- melting point: 128 to 130 °C

Compound: N#CCNC(=O)c1ccc2cccnc2c1O [Example 72, N-(cyanomethyl)-8-hydroxy-7-quinolinecarboxamide]
- melting point: 206 to 208 °C (dec.)

Compound: CC(C)(C)OC(=O)NCCNc1nnc(NC(=O)c2ccc3cccnc3c2O)s1
- IC50 [2, 5]: 14.3 µM

Compound: Cc1cc(C(F)(F)F)nc2c(O)c(C(=O)NCc3ccc(Cl)cc3)ccc12
- inhibition at 100 µM ([2]; Table 13, 100 μM): 35%

Compound: O=C(N[C@H]1CC[C@H](O)CC1)c1ccc2cccnc2c1O
- inhibition at 25 µM ([2]; Table 14): 21%

Compound: O=C(NCc1ccc(Cl)cc1)c1ccc2ccc(/C=C/c3ccco3)nc2c1O [Example 57, N-[(4-Chlorophenyl)methyl]-2-[2-(2-furyl)ethenyl]-8-hydroxy-7-quinolinecarboxamide]
- IC50 ([2]; Table 5, pol type CMV, read-out: IC50): 8 µM

Compound: O=C(Nc1nnc(NC(C(=O)O)c2ccc3c(c2)OCO3)s1)c1ccc2cccnc2c1O (stereo not drawn)
- IC50 [2, 5]: 22.6 µM

Compound: CC(C)(C)OC(=O)[C@H](Cc1ccc(O)cc1)NC(=O)c1ccc2cccnc2c1O
- IC50 [2, 4]: 8.1 µM

Compound: CC[C@H](C)C(CO)NC(=O)c1ccc2cccnc2c1O (stereo partly drawn)
- IC50 ([2]; Table 14, read-out: IC50): 26 µM

Compound: CC(C)C[C@H](NC(=O)c1ccc2cccnc2c1O)C(=O)OC(C)(C)C
- IC50 ([2]; Table 14, read-out: IC50): 51 µM

Compound: CC1CCC(NC(=O)c2ccc3cccnc3c2O)CC1 (stereo not drawn)
- IC50 [2, 4]: 23.3 µM

Compound: CC1CCCCC1NC(=O)c1ccc2cccnc2c1O (stereo not drawn)
- IC50 [2, 4]: < 3.1 µM and > 10 µM

Compound: CCCCNc1nnc(NC(=O)c2ccc3cccnc3c2O)s1
- IC50 [2, 5]: 2.5 µM

Compound: N#CC(Nc1nnc(NC(=O)c2ccc3cccnc3c2O)s1)c1ccc2c(c1)OCO2 (stereo not drawn)
- IC50 [2, 5]: 3.1 µM

Compound: O=C(Nc1ccc(Oc2ccc([N+](=O)[O-])cc2)cc1)c1ccc2cccnc2c1O
- IC50 [2, 6]: 3.9 µM

Compound: CCCCCCCCCCCNC(=O)c1ccc2cccnc2c1O
- IC50 [2, 4]: < 3.1 µM

Compound: O=C(N[C@@H](c1ccccc1)[C@H](O)c1ccccc1)c1ccc2cccnc2c1O
- IC50 [2, 4]: 2.2 µM and 4.7 µM

Continued, values first:

- melting point: 300 to 302 °C (dec.)
Compound: O=C(Nc1nnc(C(F)(F)F)s1)c1ccc2cccnc2c1O [Example 243, 8-Hydroxy-N-[5-(trifluoromethyl)-1,3,4-thiadiazol-2-yl]-7-quinolinecarboxamide]

- melting point: 209 to 210 °C
Compound: Cc1ccc(F)cc1NC(=O)c1ccc2cccnc2c1O [Example 165, N-(5-Fluoro-2-methylphenyl)-8-hydroxy-7-quinolinecarboxamide]

- melting point: 164 to 167 °C
Compound: Cc1ccc(NC(=O)c2ccc3cccnc3c2O)c(C)c1 [Example 166, N-(2,4-Dimethylphenyl)-8-hydroxy-7-quinolinecarboxamide]

- IC50 [1, 3]: < 3.1 µM
Compound: CC(C)c1ccc(S(=O)(=O)NCCCCCNC(=O)c2ccc3cccnc3c2O)cc1 [drawing 128]

- melting point: 210 to 211 °C
Compound: O=C(Nc1cc(C(F)(F)F)ccc1Cl)c1ccc2cccnc2c1O [Example 164, N-[2-Chloro-5-(trifluoromethyl)phenyl]-8-hydroxy-7-quinolinecarboxamide]

- IC50 [2, 4]: 22.6 µM
Compound: Cc1cccc(CNC(=O)c2ccc3cccnc3c2O)c1

- IC50 [2, 4]: 3.2 µM
Compound: CCCCC(CC)CNC(=O)c1ccc2cccnc2c1O (stereo not drawn)

- IC50 [2, 6]: 27.3 µM
Compound: O=C(Nc1ccccc1F)c1ccc2cccnc2c1O

- IC50 [2, 6]: 4.3 µM
Compound: O=C(Nc1ccccc1-c1ccccc1)c1ccc2cccnc2c1O

- inhibition at 25 µM ([2]; Table 14): 42%
Compound: O=C(NCCc1ccc(F)cc1)c1ccc2cccnc2c1O

- IC50 ([2]; Table 13, read-out: IC50): 41.6 µM
Compound: O=C(NCCSc1ccccc1)c1ccc2ccc(C(F)(F)F)nc2c1O

- IC50 [2, 4]: 5.2 µM
Compound: O=C(NCc1ccc(Cl)cc1Cl)c1ccc2cccnc2c1O

- IC50 ([2]; Table 14, read-out: IC50): 42 µM
Compound: O=C(NCCNc1ccc([N+](=O)[O-])cn1)c1ccc2cccnc2c1O

- IC50 [2, 4]: 5 µM
Compound: O=C(NCCc1ccc(Br)cc1)c1ccc2cccnc2c1O

- IC50 [2, 6]: > 50 µM
Compound: N#Cc1ccccc1NC(=O)c1ccc2cccnc2c1O

- IC50 [2, 6]: 5.5 µM
Compound: Cc1c(NC(=O)c2ccc3cccnc3c2O)cccc1[N+](=O)[O-]

- IC50 [2, 6]: 13.6 µM
Compound: O=C(Nc1ccc2[nH]ccc2c1)c1ccc2cccnc2c1O

- IC50 [2, 5]: 71 µM
Compound: O=C(Nc1nnc(C(F)(F)F)s1)c1ccc2cccnc2c1O [drawing 303]

- IC50 ([2]; Table 14, read-out: IC50): 54 µM
Compound: N#CC(NC(=O)c1ccc2cccnc2c1O)c1ccccc1 (stereo not drawn)

- IC50 ([2]; Table 14, read-out: IC50): 41 µM
Compound: CCOC(=O)C(Cc1ccccc1)NC(=O)c1ccc2cccnc2c1O (stereo not drawn)

- IC50 [2, 5]: 2.4 µM
Compound: O=C(Nc1nnc(NCCc2ccccc2)s1)c1ccc2cccnc2c1O

- IC50 [2, 6]: 12.5 µM
Compound: O=C(Nc1ccccc1I)c1ccc2cccnc2c1O

- inhibition at 25 µM ([2]; Table 14): 39%
Compound: O=C(NC(CO)c1ccccc1)c1ccc2cccnc2c1O (stereo not drawn)

- IC50 [2, 4]: 4.5 µM
Compound: O=C(NCCc1ccc(Oc2ccccc2)cc1)c1ccc2cccnc2c1O

- IC50 [2, 4]: 8.1 µM
Compound: O=C(NCc1ccc(Cl)cc1)c1ccc2cccnc2c1O [drawing 169]

- IC50 [2, 6]: 18.4 µM
Compound: O=C(Nc1cccc(C(F)(F)F)c1)c1ccc2cccnc2c1O

- IC50 ([2]; Table 14, read-out: IC50): 19 µM
Compound: O=C(N[C@@H](CO)c1ccccc1)c1ccc2cccnc2c1O

- IC50 [2, 4]: 5.6 µM
Compound: CCCCCCCCNC(=O)c1ccc2cccnc2c1O

- IC50 [2, 4]: 3 µM
Compound: C[C@H](NC(=O)c1ccc2cccnc2c1O)c1cccc2ccccc12

- IC50 [2, 4]: 7.1 µM
Compound: O=C(NCc1c(F)cccc1F)c1ccc2cccnc2c1O
